Measured values as given in patent publication US11834401B2, “Treating and preventing diseases by modulating cell mechanics” (THE JOHNS HOPKINS UNIVERSITY, priority 2013, dated 2023).

Experiments:
microtubule = assay: Microtubule structure; type: cell-based
Dictyostelium cells = assay: Micropipette aspiration cortical tension, Dictyostelium; type: cell-based, Dictyostelium discoideum
Procedure: Micropipette aspiration was used for cortical tension and creep response measurements. Confocal imaging was performed on a Zeiss 510 Meta with a 63× (numerical aperture [NA] 1.4) objective (Carl Zeiss, Jena, Germany). Epifluorescence and TIRF imaging was performed in a 22° C. temperature controlled room with an Olympus IX81 microscope using a 40× (NA 1.3) or 60× (NA 1.49) objective and a 1.4× optovar (Olympus, Center Valley, Pa.), as previously described. Image analysis was performed with ImageJ (rsb.info.nih.gov/ij).
The instrumental and experimental setups have been previously described (Effler J C, et al., 2006; Kee Y-S, et al., 2013). Micropipette aspiration assays were all carried out in growth media with 0.1% DMSO. For cortical tension measurements of Dictyostelium cells, pressure was applied to the cell cortex with a micropipette (2-3 m radius, Rp) to the equilibrium pressure (ΔP) where the length of the cell inside the pipette (Lp) was equal to Rp. The effective cortical tension (Teff) was calculated by applying the Young-Laplace equation: ΔP=2Teff(1/Rp-1/Rc), where Rc is the radius of the cell and ΔP is the equilibrium pressure when Lp=Rp (Derganc J, et al., 2000; Octtaviani E, et al., 2006). For creep tests on mammalian strains, a constant aspiration stress was applied over 60 s. The micropipette radius was 3.5-4.5 m. For quantification, the Lp/Rp ratio values was measured every two seconds and plotted as a function of time. A10.7 and HEK293 cells could only be aspirated at a low pressure range (0.15 nN/μm^2), while HPDE, ASPC-1, and HL-60 cells could be aspirated at higher pressure ranges (0.25 nN/μm^2) because they were stiffer.

[1] = system: chicken non-muscle IIB (NMIIB) HMM; assay: In vitro motility assay (gliding actin filaments); type: biochemical; conditions: 500 nM each alone; 250 nM each in 1:1 ratio
Text: (§1) The sedimentation assays were used to assess myosin II assembly in cells. The assembly assay used purified proteins (N-terminal 6×His tag (SEQ ID NO: 1), fused to the mCherry fluorophore, fused to the assembly domains of Dictyostelium myosin II (residues 1533-1823), human myosin IIA (residues 1722-1960), and human myosin IIB (residues 1729-1976), and 6×His-tagged (SEQ ID NO: 1) fused Dictyostelium 14-3-3). Purified chicken nonmuscle IIB heavy meromyosin (HMM) was used for in vitro motility.
The chicken non-muscle IIB (NMIIB) HMM construct (residues 1-1228, GenBank™ accession number M93676, no splice insert) was purified as previously described (Norstrom M F, et al., 2010). Motility assays were performed at 22° C. and imaged on Zeiss Axiovert 200 microscope with an Andor Luca camera. The flow cells were constructed using a glass slide, two pieces of double-sided tape, and nitrocellulose-coated coverslip. Flow cells were incubated with 0.05 mg/ml green fluorescent protein antibodies (MP Biomedicals, 0.05 mg/ml in assay buffer (AB) without DTT: 25 mM KCl, 25 mM Imidazole·HCl, pH 7.5, 1 mM K·EGTA, 4 mM MgCl2; 2 min incubation time), followed by a bovine serum albumin block (1 mg/ml in AB—as above with 10 mM DTT; 6 min incubation time). NMIIB was added to the flow cell at a concentration of 420 nM and incubated for 2 min. […]

[2] = molecular target: T1, Dictyostelium myosin II ADCT (Dictyostelium discoideum, UniProt P08799); assay: In vitro myosin assembly assay, with or without 14-3-3; type: biochemical; conditions: with or without purified 14-3-3
T1 construct: fused to the assembly domains of Dictyostelium myosin II (residues 1533-1823); 6xHis (N); mCherry (N); made in house; host or cells: E. coli BL-21 Star (DE3)
T1 sequence (P08799 1533-1823): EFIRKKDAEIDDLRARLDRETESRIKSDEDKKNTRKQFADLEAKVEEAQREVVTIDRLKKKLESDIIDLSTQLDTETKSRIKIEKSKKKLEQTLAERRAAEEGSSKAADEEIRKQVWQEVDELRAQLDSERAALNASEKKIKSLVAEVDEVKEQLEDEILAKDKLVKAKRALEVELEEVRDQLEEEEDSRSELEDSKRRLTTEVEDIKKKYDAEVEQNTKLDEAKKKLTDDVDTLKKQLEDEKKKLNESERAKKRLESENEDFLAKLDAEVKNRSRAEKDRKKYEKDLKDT
Text: as §1
(§2) Bacterial expression plasmids coding for an N-terminal 6×His tag (SEQ ID NO: 1), fused to the mCherry fluorophore, fused to the assembly domains of Dictyostelium myosin II (residues 1533-1823), human myosin IIA (residues 1722-1960), or human myosin IIB (residues 1729-1976) were generated using standard cloning techniques.
Dictyostelium 14-3-3 was also expressed in bacteria as a 6×His-tagged (SEQ ID NO: 1) fusion protein (Zhou Q et al., 2010). Proteins were expressed in BL-21 Star™ (DE3) (Invitrogen) E. coli in LB shaking culture overnight at room temperature. […] Protein purity was verified by SDS-PAGE followed by Coomassie Blue staining, and concentration was quantified by UV absorbance using the calculated extinction coefficient for each protein's amino acid sequence. […]

human myosin IIA = molecular target: T2, human myosin IIA (Homo sapiens, UniProt P35579); assay: In vitro myosin assembly assay; type: biochemical; conditions: n=3
T2 construct: human myosin IIA (residues 1722-1960); 6xHis (N); mCherry (N); made in house; host or cells: E. coli BL-21 Star (DE3)
T2 sequence (P35579 1722-1960): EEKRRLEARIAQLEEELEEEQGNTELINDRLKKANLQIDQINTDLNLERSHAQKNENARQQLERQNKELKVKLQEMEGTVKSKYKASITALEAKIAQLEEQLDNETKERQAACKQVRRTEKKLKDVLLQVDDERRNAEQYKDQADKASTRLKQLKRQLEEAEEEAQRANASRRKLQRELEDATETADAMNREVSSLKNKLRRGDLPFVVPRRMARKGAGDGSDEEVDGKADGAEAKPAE
Text: as §1, §2
(§3) In vitro assembly of myosin was conducted according to the method of Zhou et al, 2010 (Zhou Q et al., 2010), with a number of modifications. The protein concentration for each species in the tube was increased to […] to ensure that the smaller protein was adequately visible by Coomassie Blue staining, and the incubation time and temperature was adjusted to 30 min at the physiological temperature for each myosin species (22° C. for Dictyostelium myosin, 37° C. for human myosins). These temperatures were also used during the centrifugation step.

human myosin IIB = molecular target: T3, human myosin IIB (Homo sapiens, UniProt P35580); assay: In vitro myosin assembly assay; type: biochemical; conditions: n=3
T3 construct: human myosin IIB (residues 1729-1976); 6xHis (N); mCherry (N); made in house; host or cells: E. coli BL-21 Star (DE3)
T3 sequence (P35580 1729-1976): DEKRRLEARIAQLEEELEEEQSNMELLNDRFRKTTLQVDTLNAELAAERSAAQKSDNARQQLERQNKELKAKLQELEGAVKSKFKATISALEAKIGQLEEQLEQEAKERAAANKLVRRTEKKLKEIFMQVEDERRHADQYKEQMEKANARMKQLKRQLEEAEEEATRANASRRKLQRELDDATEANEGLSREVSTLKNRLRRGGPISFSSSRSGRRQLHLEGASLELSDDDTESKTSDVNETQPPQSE
Text: as §1, §2, §3

SMILES	microtubule structure (microtubule)	effect on cortical tension (Dictyostelium cells; WT cells)	non-muscle myosin IIB velocity (gliding filament velocity of actin filaments) [1]	in vitro assembly vs DMSO control [2]	in vitro assembly vs DMSO control (human myosin IIA)	in vitro assembly vs DMSO control (human myosin IIB)	change in cortical tension, myosin II null cells (Dictyostelium cells; myoI null cells as printed)	change in cortical tension, S456L myosin cells (Dictyostelium cells; myoII::GFP-S456L cells)
Nc1ccc(Cl)c(Cl)c1 [3,4-DCA, 3,4-dichloroaniline]	neither 3,4-DCA nor 4-HAP affected microtubule structure	had no effect	no significant effect	no significant change in in vitro assembly	unaffected	unaffected		
CC(=O)c1ccc(O)cc1 [4-HAP, 4-hydroxyacetophenone]	neither 3,4-DCA nor 4-HAP affected microtubule structure		no significant effect	no significant change in in vitro assembly	unaffected	unaffected	did not experience a similar shift in mechanics	did not have a change in cortical tension
